# From PMC12165799, “Antimicrobial peptide developed with machine learning sequence optimization targets drug resistant Staphylococcus aureus in mice” (The Journal of Clinical Investigation, 2025)
# Experiments:
# [1] = test system: S. aureus MW2 skin infection; assay: Skin-abraded murine infection, established infection model, bacterial load; format: in vivo, mice; design: Bacterial load from skin specimens, established infection model / bacterial load in skin, Sup. Fig. 12: unit not given here; settings: for Reduction of S. aureus MW2 vs vehicle, established infection model: single dose 24 hours after inoculation, n = 8; for bacterial load in skin, Sup. Fig. 12: mice
# Experimental: 599 In vivo murine skin infection and treatment
# 600 We used a topical skin-abraded murine infection model with minor modifications to test
# 601 the in vivo efficacy of the CIT-8 peptide (25). We performed all mouse studies following the
# 602 protocol approved by the Institutional Animal Care and Use Committee. In brief, we anesthetized
# 603 female C57BL/6 mice (6 weeks) (Jackson Laboratory, Bar Harbor, ME, USA) with ketamine-
# 604 xylazine (90 mg/kg ketamine and 10 mg/kg xylazine) via intraperitoneal injection. We shaved the
# 605 dorsal side of the mice in the middle of the back (area=2 cm2). To disrupt skin integrity, we tape-
# 606 stripped with Tensoplast® seven times in succession, replacing the tape each time, resulting in
# 607 visibly damaged skin. We infected the damaged skin area with 1 × 10^7 CFU of S. aureus MW2
# 608 (exponential phase bacteria in PBS) with an inoculum of 50 µl using a pipette tip. Ten minutes
# 609 (prophylactic model) and 24 h (established model) after bacterial inoculation, we applied 30 mg
# 610 of 1 and 2% (w/w) CIT-8 ointment in a white petroleum jelly base (Cat no. 19-090-843, Fisher
# 611 Scientific, MA, USA) to the skin. We also included animal groups treated with only petroleum
# 612 jelly or with 2% commercial mupirocin ointment as negative and positive controls, respectively.
# 613 For pain management, we used the analgesic buprenorphine SR (0.05 mg/kg).
# 614 After 24 h of treatment, we euthanized the animals, separated the skin from the underlying
# 615 fascia and muscle tissue, and excised about 2 cm2 of skin from the infected area. We ground the
# 616 skin in 1ml of PBS buffer (Gibco, MD, USA). We serially diluted 100 µl of the solution in PBS
# 617 and plated it on Remel™ TSA plates (Fisher, MA, USA) to estimate viable colony counts after 18
# 618 h of incubation at 37 °C. Further, we added 10 µl of EDTA-Free, protease inhibitor cocktail Set III
# 619 (Millipore Sigma, MA, USA) to 500 µl of the ground skin PBS solution for cytokine estimation.
# 620 The Cytokine Core, LLC (Indianapolis, IN, USA) performed the cytokine concentration analysis
# [2] = test system: HepG2 cells; assay: Mammalian cell cytotoxicity assay
# Experimental: 410 the HepG2 cells at 37°C in 5% CO2 in Dulbecco’s Modified Eagle Medium (DMEM) (Gibco, MA,
# We harvested and resuspended cells in fresh DMEM
substance,measurement,setting,value
H-GLFKVIKKLLKVI-NH2 [CIT-8],"Bacterial load from skin specimens, established infection model","[1]; 1% ointment 24 hours after infection, animal 1",573476702
same,"Bacterial load from skin specimens, established infection model","[1]; 1% ointment 24 hours after infection, animal 2",722891566
same,"Bacterial load from skin specimens, established infection model","[1]; 1% ointment 24 hours after infection, animal 3",990099010
same,"Bacterial load from skin specimens, established infection model","[1]; 1% ointment 24 hours after infection, animal 4",73752712
same,"Bacterial load from skin specimens, established infection model","[1]; 1% ointment 24 hours after infection, animal 5",440528634
same,"Bacterial load from skin specimens, established infection model","[1]; 1% ointment 24 hours after infection, animal 6",407784986
same,"Bacterial load from skin specimens, established infection model","[1]; 1% ointment 24 hours after infection, animal 7",586080586
same,"Bacterial load from skin specimens, established infection model","[1]; 1% ointment 24 hours after infection, animal 8",58441558
same,"Reduction of S. aureus MW2 vs vehicle, established infection model",[1]; 1% w/w ointment,0.85 log
same,"bacterial load in skin, Sup. Fig. 12","[1]; 1%, animal 1",3454231
same,"bacterial load in skin, Sup. Fig. 12","[1]; 1%, animal 2",9594096
same,"bacterial load in skin, Sup. Fig. 12","[1]; 1%, animal 3",4268293
same,"bacterial load in skin, Sup. Fig. 12","[1]; 1%, animal 4",37383178
same,"bacterial load in skin, Sup. Fig. 12","[1]; 1%, animal 5",4592423
same,"bacterial load in skin, Sup. Fig. 12","[1]; 1%, animal 6",4992200
same,"bacterial load in skin, Sup. Fig. 12","[1]; 1%, animal 7",5211726
same,"bacterial load in skin, Sup. Fig. 12","[1]; 1%, animal 8",8092486
same,"Bacterial load from skin specimens, established infection model","[1]; 2% ointment 24 hours after infection, animal 1",198248802
same,"Bacterial load from skin specimens, established infection model","[1]; 2% ointment 24 hours after infection, animal 2",54495913
same,"Bacterial load from skin specimens, established infection model","[1]; 2% ointment 24 hours after infection, animal 3",66006601
same,"Bacterial load from skin specimens, established infection model","[1]; 2% ointment 24 hours after infection, animal 4",87431694
same,"Bacterial load from skin specimens, established infection model","[1]; 2% ointment 24 hours after infection, animal 5",13757524
same,"Bacterial load from skin specimens, established infection model","[1]; 2% ointment 24 hours after infection, animal 6",41237113
same,"Bacterial load from skin specimens, established infection model","[1]; 2% ointment 24 hours after infection, animal 7",64923354
same,"Bacterial load from skin specimens, established infection model","[1]; 2% ointment 24 hours after infection, animal 8",70546737
same,"Reduction of S. aureus MW2 vs vehicle, established infection model",[1]; 2% w/w ointment,1.8 log
same,"bacterial load in skin, Sup. Fig. 12","[1]; 2%, animal 1",3143418
same,"bacterial load in skin, Sup. Fig. 12","[1]; 2%, animal 2",1148325
same,"bacterial load in skin, Sup. Fig. 12","[1]; 2%, animal 3",935065
same,"bacterial load in skin, Sup. Fig. 12","[1]; 2%, animal 4",898204
same,"bacterial load in skin, Sup. Fig. 12","[1]; 2%, animal 5",917874
same,"bacterial load in skin, Sup. Fig. 12","[1]; 2%, animal 6",1020408
same,"bacterial load in skin, Sup. Fig. 12","[1]; 2%, animal 7",1787044
same,"bacterial load in skin, Sup. Fig. 12","[1]; 2%, animal 8",4694836
same,"HepG2 cell viability, Sup. Fig. 4B","[2]; 4 μg/ml, replicate 1",110.665
same,"HepG2 cell viability, Sup. Fig. 4B","[2]; 4 μg/ml, replicate 2",94.3717
same,"HepG2 cell viability, Sup. Fig. 4B","[2]; 4 μg/ml, replicate 3",107.525
same,"HepG2 cell viability, Sup. Fig. 4B","[2]; 8 μg/ml, replicate 1",104.83
same,"HepG2 cell viability, Sup. Fig. 4B","[2]; 8 μg/ml, replicate 2",93.4852
same,"HepG2 cell viability, Sup. Fig. 4B","[2]; 8 μg/ml, replicate 3",105.572
same,"HepG2 cell viability, Sup. Fig. 4B","[2]; 16 μg/ml, replicate 1",122.471
same,"HepG2 cell viability, Sup. Fig. 4B","[2]; 16 μg/ml, replicate 2",104.62
same,"HepG2 cell viability, Sup. Fig. 4B","[2]; 16 μg/ml, replicate 3",109.473
same,"HepG2 cell viability, Sup. Fig. 4B","[2]; 32 μg/ml, replicate 1",107.545
same,"HepG2 cell viability, Sup. Fig. 4B","[2]; 32 μg/ml, replicate 2",100.768
same,"HepG2 cell viability, Sup. Fig. 4B","[2]; 32 μg/ml, replicate 3",106.994
same,"HepG2 cell viability, Sup. Fig. 4B","[2]; 64 μg/ml, replicate 1",70.5897
same,"HepG2 cell viability, Sup. Fig. 4B","[2]; 64 μg/ml, replicate 2",64.1784
same,"HepG2 cell viability, Sup. Fig. 4B","[2]; 64 μg/ml, replicate 3",64.2134
same,"HepG2 cell viability, Sup. Fig. 4B","[2]; 128 μg/ml, replicate 1",32.858
same,"HepG2 cell viability, Sup. Fig. 4B","[2]; 128 μg/ml, replicate 2",28.9912
same,"HepG2 cell viability, Sup. Fig. 4B","[2]; 128 μg/ml, replicate 3",25.6954
same,LD50 (concentration needed to kill 50% of HEPG2 cells),[2]; human liver-derived HEPG2 cells,96 µg/mL
